# Measurements reported in patent publication US20240335483A1, “NEW METHOD TO TREAT AUTOIMMUNE DISEASES” (INSTITUT NATIONAL DE LA SANTÉ ET DE LA RECHERCHE MÉDICALE, priority 2021, published 2024).
# Entries after “also recorded” stand apart in the source; their conditions may differ.
# Key:
# Format in all cases: in vivo, mouse
# Treg cells = assay: Flow cytometry of regulatory T cells in tissues
# Description: (§1) Pancreata were perfused with a solution of collagenase P in HBSS-1% HEPES (0.75 mg.ml-1, Roche), then dissected free from surrounding tissues. Pancreata were digested at 37° C. for 8 min. Digestion was stopped by adding HBSS-10% FCS-1% EDTA followed by extensive washes. For flow cytometry analysis, islets were isolated on a discontinuous Ficoll® PM400 gradient (Sigma-Aldrich) and then isolated islets were handpicked to exclude contaminations from intrapancreatic lymph nodes. Cells were released from the islets by incubation at 37° C. for 6 min in non-enzymatic cell dissociation solution (Sigma-Aldrich). For RT-qPCR, to avoid potential contamination by exocrine tissue, islets were purified by handpicking in 3 consecutive baths of HBSS-10% FCS supplemented with 1% DNAse 1.
# Immune cells from the colon were isolated using the Lamina Propria Dissociation Kit from Miltenyi (#130-097-410), combined with gentleMACS™ Octo dissociator with heaters (#130-096-427) according to the manufacturer's instructions.
# (§2) Single cell suspensions were prepared from various tissues, surface staining was performed after FcγRII/III blocking (anti-CD16/CD32) for 5 min at 4° C. and were surface stained for 30 min at 4° C. Staining buffer was PBS containing 2% FCS, 0.5% EDTA and 0.1% sodium azide. […] Stained cells were analyzed on a Becton Dickinson Fortessa flow cytometer. Data were analyzed with Flowjo™ v10 software.
# NOD mice = assay: Spontaneous diabetes incidence
# Description: Female NOD, BALB/c, C57BL/6J, C57BL/6J camp−/− in different ages were used, bred and housed in specific pathogen-free conditions. Recombinant mouse CRAMP1-39 and scrambled (sc)CRAMP1-39 were produced under aseptic conditions and provided after endotoxin removal processing (Innovagen). Newborn NOD mice were treated by intra-colonic treatment between 10 and 21 days of age every 3 days with CRAMP or scCRAMP (10 μg in 10 μL/mouse/injection) or vehicle (PBS-1% H2O). For blocking TLR experiments, newborn NOD mice were treated between 7 and 14 days of age every 3 days with TLR2 inhibitor CU CTP22 (25 μg in 10 μL/mouse/injection) or TLR4 inhibitor TAK242 (25 μg in 10 μL/mouse/injection) or with TLR5 inhibitor TH1020 (20 μg in 10 μL/mouse/injection) or with vehicle (PBS 1% DMSO). All inhibitors are from Tocris. For modulating IFNα experiment, newborn NOD mice were treated between 7 and 14 days of age every 3 days with anti-IFNα receptor mAb (200 μg in 10 μL/mouse/injection) (BioXcell) or equivalent amount of isotype control (mouse IgGI) or gardiquimod (50 μg in 10 μL/mouse/injection) or vehicle (PBS-1% H2O). For CRAMP-expressing probiotic experiment, pregnant NOD mice were given CRAMP-expressing Lactococcus lactis or conventional L. lactis ([…] colony forming units (cfu) in 100 μL PBS/mice) by oral gavage one day before delivery. For cross-fostering experiments, NOD pups were adopted immediately at birth by recipient mice (C57BL/6, BALB/c, CRAMP-treated NOD mice or NOD mice), that delivered the same day and pups from the two litters were maintained in the same cage. All animal experimental protocols were approved by the ethic committee for animal experimentation (APAFIS #3535-2015092416202090).
# NOD mice were treated as described above with CRAMP or scCRAMP, anti-IFNαR mAb, gardiquimod or were born from CRAMP-expressing L. lactis treated NOD mice or were cross-fostered by CRAMP-treated NOD mice. […]
# Diabetes incidence was plotted according to the Kaplan-Meier method. […] All data were analyzed using GraphPad Prism v6 software.
# [1] = test system: inflammatory and regulatory cytokines in colon; assay: Cytokine expression in colon (RT-qPCR)
# Description: (§3) Total RNA was isolated using the Nucleospin RNA XS kit (Macherey-Nagel) from a minimum of 100 handpicked islets per mouse or using Nucleospin RNA kit (Macherey-Nagel) for colon tissue. RNA was reverse transcribed to synthesized cDNA using the high capacity cDNA reverse transcription kit (ThermoFisher) and measurements were performed by qPCR using Power SYBR® Green (ThermoFisher) on a 7900HT Fast System (Applied Biosystems). Resulting levels of fluorescence were submitted to relative quantification by normalization against a housekeeping gene (GAPDH) and expressed as 2-(ΔCT) values.
# [2] = test system: IGRP206-214-specific CD8+ T cells; assay: Flow cytometry of diabetogenic IGRP206-214-specific CD8+ T cells; conditions: 12-week-old NOD mice after intracolonic CRAMP as newborns
# Description: as §1
# as §2, with “azide. For detection of the subsets of conventional dendritic cells, cells suspension were surface stained with anti-CD45, -TCRβ, -CD19-CD11c, -F4/80, -CD103, -CD11b.” for “azide.”
# type I IFN signature = assay: Colonic type I IFN signature (RNAseq, RT-qPCR)
# Description: as §3
# Colon tissue was recovered from 5 mice from 5 independent cages per group. Total RNA were isolated from colon using the RNeasy Kit (QIAGEN) including a DNAse treatment step. RNA quality was assessed using RNA Screen Tape 6000 Pico LabChips with the Tape Station (Agilent Technologies) and RNA concentration was measured by spectrophometry using the Xpose (Trinean). RNAseq libraries were prepared starting from 1 μg of total RNA using the TruSeq Stranded mRNA LT Sample Prep Kit (Illumina) as recommended by the manufacturer. […] A mean of 23 million of paired-end reads was produced per library sample (between 21 to 25 million of passing filter reads). The generated data were analyzed using the Ingenuity Pathway Analysis software (Qiagen).
# microbiota = assay: 16S rDNA gene sequencing of microbiota composition; conditions: 5 weeks of age, after intracolonic CRAMP in newborn NOD mice
# Description: Stools were recovered from 5 mice from 5 independent cages per group, and were stored at −80° C. in DNA/RNA Shield™ (Zymo Research, #R1100-250) immediately after emission before shipment to Zymo Research (ZymoBIOMICS Services). For CRAMP treatment experiments, pups from different litters were randomly mixed and then separate before treatment with CRAMP or scCRAMP. The samples were processed and analyzed with the ZymoBIOMICS® Targeted Sequencing Service for Microbiome Analysis (Zymo Research, Irvine, CA). DNA Extraction: One of three different DNA extraction kits was used depending on the sample type and sample volume. In most cases, the ZymoBIOMICS® DNA Miniprep Kit (Zymo Research, Irvine, CA) was used. For low biomass samples, such as skin swabs, the ZymoBIOMICS® DNA Microprep Kit (Zymo Research, Irvine, CA) was used as it permits for a lower elution volume, resulting in more concentrated DNA samples. For a large sample volume, the ZymoBIOMICS@-96 MagBead DNA Kit (Zymo Research, Irvine, CA) was used to extract DNA using an automated platform. Targeted Library Preparation: Bacterial 16S ribosomal RNA gene targeted sequencing was performed using the Quick-16S™ NGS Library Prep Kit (Zymo Research, Irvine, CA). The bacterial 16S primers amplified the V1-V2 or V3-V4 region of the 16S rRNA gene. These primers have been custom-designed by Zymo Research to provide the best coverage of the 16S gene while maintaining high sensitivity. Fungal ITS gene targeted sequencing was performed using the Quick-16S™ NGS Library Prep Kit with custom ITS2 primers substituted for 16S primers. […] The final PCR products were quantified with qPCR fluorescence readings and pooled together based on equal molarity. The final pooled library was cleaned up with the Select-a-Size DNA Clean & Concentrator™ (Zymo Research, Irvine, CA), then quantified with TapeStation®(Agilent Technologies, Santa Clara, CA) and Qubit® (Thermo Fisher Scientific, Waltham, […]). […] Bioinformatics Analysis: Unique amplicon sequences were inferred from raw reads using the DADA2 pipeline. […]
# TLR4 ligands = assay: TLR4 ligand levels in colon extract (HEK-blue TLR reporter cells); conditions: NOD mice, intracolonic CRAMP treatment
# Description: (§4) Colons from 2-week-old mice were recovered in 100 μL PBS, cut in some pieces and homogenized by vortexing. Cell-free supernatant was recovered after centrifugation at 10 000 g for 10 min. A 100-fold dilution was used to measure TLR2 and TLR4 ligand levels in the supernatants using HEK-blue™ TLR reporter cells ([…], #hkb-mtlr2 and #hkb-mtlr4) according to the manufacturer protocol.
# TLR2 ligands = assay: TLR2 ligand levels in colon extract (HEK-blue TLR reporter cells); conditions: NOD mice, intracolonic CRAMP treatment
# Description: as §4
Molecule,"frequency of pancreatic LAP+ Treg cells (Treg cells; male NOD mice, intracolonic gardiquimod at 10 days of age, pancreatic islets at 12 weeks of age)","diabetes incidence (NOD mice; gardiquimod, intracolonic, newborn female NOD mice)",cytokine profile in the colon ([1]; CRAMP treatment of adult NOD mice),expression of inflammatory cytokines in colon ([1]; adult NOD colon after CRAMP treatment of newborn NOD mice),"frequency and absolute number of Treg cells (Treg cells; prediabetic 12-week-old NOD mice after intracolonic CRAMP as newborns, pancreas, colon, PLN, MLN, spleen)",frequency and absolute number of IGRP206-214-specific CD8+ effector T cells [2],type I IFN signature in the colon (type I IFN signature; colonic CRAMP treatment of 10-day-old NOD mice),type I IFN signature in the newborns (type I IFN signature; newborn NOD mice cross-fostered by NOD dams previously treated with CRAMP at 10 days of age),abundance of the genera Lactobacillus and Bifidobacterium (microbiota),abundance of the genus Alistipes (microbiota),microbiota composition (microbiota; control scCRAMP),level of TLR4 ligands in the colon (TLR4 ligands),level of TLR2 ligands in the colon (TLR2 ligands),"development (incidence) of diabetes (NOD mice; female NOD mice, intracolonic CRAMP every 3 days from 10 to 21 days of age, control scCRAMP, FIG. 1A)","incidence of diabetes in adopted NOD mice (NOD mice; newborn NOD mice from untreated dams cross-fostered to NOD dams treated by CRAMP between 10 and 21 days of age, FIG. 1)"
"CCNCc1nc2c(N)nc3ccccc3c2n1CC(C)(C)O [gardiquimod, reference compound]",decreased the frequency of pancreatic LAP+ Treg cells in the adult NOD mice,increased,–,–,–,–,–,–,–,–,–,–,–,–,–
CRAMP,–,–,inefficient at changing the cytokine profile in the colon,prevented the overexpression of inflammatory cytokines in the adult NOD colon,"increased the frequency, but not the absolute number, of Treg cells in the pancreas and colon of adult NOD mice",decreased in the pancreas and PLN in the adult mice,reduced,prevented the aberrant type I IFN signature in the newborns,increased abundance,decreased abundance,changed microbiota composition in the adult mice,reduced the levels of TLR2 and TLR4 ligands in the colon,reduced the levels of TLR2 and TLR4 ligands in the colon,significantly prevented the development of diabetes,decrease of diabetes development; also recorded: decreased incidence of diabetes in the adopted NOD mice
